According to PubChem BioAssay (NCI):
In brackets after ≈: the same amount, converted by molar mass. Several values for one entry are separate records, joined by “and”; a condition that tells them apart may be missing. Identical values can stand only once.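 Cultured in 96-well plates, cells were exposed to test compound for 48 hours across five concentrations. Here, GI50 denotes the concentration required for 50% inhibition of growth. At the TGI there is no net growth.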 Activity calls are given as the source filed them. Rule as the data show it: active = GI50 below about 0.43 µM; inactive = the rest.

Columns and labels:
Test in all cases: NCI anticancer screen, dose series, 48 h
HOP-62 NSCLC = system: HOP-62 NSCLC
SF-295 CNS = system: SF-295 CNS
OVCAR-8 ovarian = system: OVCAR-8 ovarian
NCI/ADR-RES ovarian = system: NCI/ADR-RES ovarian
HOP-92 NSCLC = system: HOP-92 NSCLC
TK-10 renal = system: TK-10 renal
LXFL 529 NSCLC = system: LXFL 529 NSCLC
CCRF-CEM leukemia = system: CCRF-CEM leukemia
IGROV1 ovarian = system: IGROV1 ovarian

O=C1c2ccccc2C(=O)c2c1ccc1c3ccccc3n(-c3ccccc3)c21
TGI (HOP-62 NSCLC): > 100 µM
TGI (SF-295 CNS): 37.2 µM
TGI (OVCAR-8 ovarian): 44.8 µM
TGI (NCI/ADR-RES ovarian): > 100 µM
TGI (HOP-92 NSCLC): 11.7 µM
TGI (TK-10 renal): 60.1 µM
TGI (LXFL 529 NSCLC): 30.7 µM
TGI (CCRF-CEM leukemia): 14.5 µM
TGI (IGROV1 ovarian): 41 µM

COc1cc2c(cc1O)CCN[C@@]21CS[C@H]2c3c(OC(C)=O)c(C)c4c(c3C(COC1=O)N1C2C2NC(Cc3cc(C)c(OC)c(O)c32)[C@@H]1O)OCO4 (some centres not stated)
TGI (HOP-62 NSCLC): < 10 nM and 3.8e-07 µg/mL and 0.0045 µg/mL
GI50 (SF-295 CNS): 4.5 ng/mL (≈ 6.02 nM)
TGI (SF-295 CNS): 1.09 µM and 5.17 µg/mL
GI50 (OVCAR-8 ovarian): 4.5 ng/mL (≈ 6.02 nM)
TGI (OVCAR-8 ovarian): < 10 nM and 0.472 µg/mL
TGI (NCI/ADR-RES ovarian): 0.0369 µM
GI50 (HOP-92 NSCLC): 0.000135 ng/mL (≈ 0.000181 nM)
TGI (HOP-92 NSCLC): 9.17 µM and 5.9e-07 µg/mL
GI50 (TK-10 renal): 0.00184 ng/mL and 4.5 ng/mL
TGI (TK-10 renal): 13.1 µM and 6.24 µg/mL
outcome (LXFL 529 NSCLC): inactive
GI50 (CCRF-CEM leukemia): 4.5 ng/mL (≈ 6.02 nM)
TGI (CCRF-CEM leukemia): > 100 µM and 0.000154 µg/mL and 0.0045 µg/mL
GI50 (IGROV1 ovarian): 0.000551 ng/mL and 4.5 ng/mL
TGI (IGROV1 ovarian): 10.5 µM and 0.000362 µg/mL and 0.0045 µg/mL

Nc1nc(N)c(CCCCc2ccc([N+](=O)[O-])cc2)c(N)n1
TGI (HOP-62 NSCLC): > 100 µM
TGI (SF-295 CNS): > 100 µM
TGI (OVCAR-8 ovarian): > 100 µM
TGI (NCI/ADR-RES ovarian): > 100 µM
TGI (HOP-92 NSCLC): > 100 µM
TGI (TK-10 renal): > 100 µM
TGI (LXFL 529 NSCLC): > 100 µM
TGI (CCRF-CEM leukemia): > 100 µM
TGI (IGROV1 ovarian): > 100 µM

C=C1C(=O)C23C(O)CC4C(C)(C)CCC(O)C4(C)C2CC(OC(C)=O)C1[C@H]3O (some centres not stated)
TGI (HOP-62 NSCLC): 28.2 µM
TGI (SF-295 CNS): 21.6 µM
TGI (OVCAR-8 ovarian): 2.83 µM
TGI (NCI/ADR-RES ovarian): 42.9 µM
TGI (HOP-92 NSCLC): 7.01 µM
TGI (TK-10 renal): 3.72 µM
TGI (LXFL 529 NSCLC): 2.41 µM
TGI (CCRF-CEM leukemia): 2.7 µM

COc1cc([C@@H]2c3cc4c(cc3[C@@H](OC3OC5COC(C)OC5C(O)C3O)[C@H]3COC(=O)[C@H]23)OCO4)cc(OC)c1O (some centres not stated)
TGI (OVCAR-8 ovarian): 117 µM and 500 µM and 156 µM
TGI (NCI/ADR-RES ovarian): 178 µM and 500 µM and 650 µM
TGI (HOP-92 NSCLC): 37.9 µM and 114 µM
TGI (TK-10 renal): > 84.4 µM and 48.8 µM and 32 µM
TGI (LXFL 529 NSCLC): 218 µM
TGI (IGROV1 ovarian): 67.8 µM and 159 µM and 157 µM
